Laboratory results from ChEMBL document CHEMBL1157539, “Thousands of chemical starting points for antimalarial lead identification” (Nature, 2010).

test system: Plasmodium falciparum; experiment: GSK_TCMDC: Inhibition of Plasmodium falciparum 3D7 in whole erythrocytes, using parasite LDH activity as an index of growth.; format: functional, organism-based; details: Plasmodium falciparum, 3D7

Row | Compound | XC50 [µM]
1 | CCN(CC)CCN(Cc1ccc(-c2ccc(C(F)(F)F)cc2)cc1)C(=O)Cn1c(CCc2cccc(F)c2F)nc(=O)c2sccc21 | 0.905
2 | Cc1nc(N)nc(N)c1-c1ccc(Cl)cc1 | 0.767
3 | Cc1nc(N)nc(N)c1-c1ccc2ccccc2c1 | 0.868
4 | CC(=O)Nc1ncc(C(=O)Nc2cccc(-c3ccc(-c4nc5cc(C(F)(F)F)ccc5[nH]4)s3)c2)s1 | 0.398
5 | Nc1nc(N)c2c(ccc3c2ccn3Cc2ccc(Cl)cc2)n1 | 0.0032
6 | CC(C)(C)c1ccc(NC(=O)c2ccc(CN3CCCN(Cc4cccc(O)c4)CC3)cc2)cc1 | 0.665
7 | Cc1cc(N)cc2nc(-c3ccc(N)cc3)[nH]c12 | 0.892
8 | COc1ccccc1CCNc1nc(C)cc(NCCC(=O)Nc2ccccc2)n1 | 0.806
9 | O=C(NCc1ccccc1)c1ccc(C(=O)NCC2CNCCO2)cc1 (stereo not drawn) | 1.14
10 | CC(Nc1ccc2c(c1)CCC2)C(=O)Nc1cc(C(F)(F)F)ccc1N1CCOCC1 (stereo not drawn) | 0.0853
11 | COc1ccc(-c2cccc(NC(=O)c3ccc(Cl)cc3)c2)cc1CNC(C)C | 0.695
12 | Cc1cc(NC(=O)Nc2ccc(C(C)C)cc2)c2ccccc2n1 | 0.662
13 | Cc1cc(NC(=O)c2ccco2)ccc1OC1CCN(Cc2ccc(F)cc2)C1 (stereo not drawn) | 0.644
14 | CCCN(CC1CC1)c1ncc(-c2cccc(CNCc3ccccc3O)c2)cn1 | 0.7
15 | Cc1ccc(O)cc1Nc1ccnc2cc(-c3ccccc3)ccc12 | 1.07
16 | CC(C)(C(=O)Nc1ccc(N2CCC3(CCCN(CC4CC4)C3)CC2)c(Cl)c1)c1cccc(C(F)(F)F)c1 | 2
17 | Cc1ccc(C)c(CC(=O)N2CCC(n3c(C)nc4ccc(F)cc43)CC2)c1 | 0.193
18 | CC(C)Cn1c(Sc2ccc(C#N)c([N+](=O)[O-])c2)nnc1-c1ccc(N(C)C)cc1 | 0.22
19 | CN(/N=C/c1ccc(Cl)cc1)c1nc(NCCc2ccc(O)cc2)nc(N2CCNCC2)n1 | 1.35
20 | Cc1ccc(Cc2c[nH]c(NCCSCc3ccc(CN4CCOCC4)o3)nc2=O)cn1 | 1.07
21 | O=C(/C=C/c1ccc(Cl)c(Cl)c1)NCCCCCN1CCCN(C(=O)Nc2cc(Cl)cc(Cl)c2)CC1 | 0.791
22 | COc1cccc(C=CC(=O)N(CCN)Cc2ccccc2)c1 | 0.815
23 | COc1ccc(-c2cc3ncn(CC(=O)N4CCN(c5cccc(OC)c5)CC4)c(=O)c3s2)cc1 | 1.06
24 | O=C(NCCc1ccc(Cl)c(Cl)c1)c1ccc(CNC(=O)c2ccc(O)c(-c3ccc(Cl)c(Cl)c3)c2)cc1 | 0.812
25 | O=C(NCCNc1ccnc2cc(Cl)ccc12)c1ccccc1F | 0.655

Row | Compound | XC50 [µM]
26 | NC(=O)c1cc2nc(NC3CCC3)nc(Nc3cccc4[nH]ncc34)c2[nH]1 | 0.732
27 | CC(CN(C)C)C(=O)Nc1cccc(-c2ccc(-c3nc4ccccc4[nH]3)cc2)c1 (stereo not drawn) | 0.706
28 | CCOc1ccccc1CCNCC1CCN(CC2CCCCC2)CC1 | 0.783
29 | O=[N+]([O-])c1ccc(N/C(=N\c2ccccc2Br)NCCOc2ccccc2)c(O)c1 | 1.05
30 | COc1ccc(CNC(=O)NC2CCN(c3ccnc(Nc4ccc(OC)cc4)n3)C2)cc1 (stereo not drawn) | 1
31 | NC1CCN(Cc2ccc(-c3ccc(-c4nc5ccccc5[nH]4)s3)cc2)C1 (stereo not drawn) | 0.743
32 | NC1=NC(CCc2ccccc2)N(c2ccccc2)C(N)=N1 (stereo not drawn) | 0.0771
33 | CCCc1nc2c(N3CCCN(C(=O)NC4CCCCC4)CC3)cccc2n1Cc1ccccn1 | 1.16
34 | O=C(/C=C/c1ccc(Cl)c(Cl)c1)NCCCCCN1CC[C@H](NC(=O)c2ccc3c(c2)OCO3)C1 | 0.942
35 | CCC(=O)N1CCc2cc(Br)cc(S(=O)(=O)N3CC(C)CC(C)C3)c21 (stereo not drawn) | 0.932
36 | Cc1cccc2nc(-c3ccc(-c4cccc(CNCCCN5CCCC5=O)c4)s3)[nH]c12 | 0.59
37 | CCC(CC)(Cc1ccccc1)NC(=O)[C@H](Cc1ccc(OC)c(OC)c1)Nc1ccc(C#N)c2ccccc12 | 0.866
38 | O=C(Nc1ccc(-c2ccc(-c3nc4cc(C(F)(F)F)ccc4[nH]3)s2)cc1)c1c[nH]cn1 | 0.67
39 | Cc1ccc(Nc2nc(C)cc(NCc3ccc(-n4ccnc4)cc3)n2)cc1 | 1.01
40 | Cc1ccc(-c2noc(=O)n2CC(=O)Nc2ccccc2-c2ccccc2)cc1 | 0.807
41 | COc1ccc2nccc([C@@H](O)CN3CCC(NCc4cc5ccccc5nc4O)CC3)c2c1 | 0.182
42 | COc1ccccc1C1CCN(C2CCC(NC(=O)/C=C/c3cc(F)c(F)cc3F)CC2)CC1 (stereo not drawn) | 1.6
43 | N#CCCN1CCN(Cc2cccc(-c3ccc(-c4nc5ccccc5[nH]4)cc3)c2)CC1 | 1.02
44 | O=C(NCCSCc1c(F)cccc1Cl)c1cnc2c(c1)nc(-c1c[nH]c(-c3ccccc3)n1)n2CCc1c[nH]cn1 | 0.807
45 | O=C(Nc1cccc(-c2ccc(-c3nc4cc(F)ccc4[nH]3)cc2)c1)Nc1ccc(F)c(F)c1F | 0.113
46 | Cc1ccc(CN2CCCN(Cc3cccc(NC(=O)c4ccc(-c5ccccc5)cc4)c3)CC2)cc1C | 1.25
47 | Cc1noc(C)c1-c1ccc2c(Nc3ccccc3C(C)(C)C)c(C(=O)NCc3ccccc3)cnc2c1 | 0.762
48 | O=C(NCCNc1ccnc(Nc2ccc(F)cc2)n1)Nc1ccc2c(c1)OCO2 | 0.682
49 | CCOC(=O)NC1=NC(C)(C)N(OCc2ccc(Cl)c(Cl)c2)C(NC(=O)OCC)=N1 | 0.278
50 | O=C(NC1CCN(Cc2ccccc2)C1)c1ccc(Nc2ccc(Br)cc2)nc1 (stereo not drawn) | 1.08

Row | Compound | XC50 [µM]
51 | COC(=O)/C=C/C(=O)N[C@@H]1CC[C@@]2(O)[C@H]3Cc4ccc(O)c5c4[C@@]2(CCN3CC2CC2)[C@H]1O5 | 0.639
52 | CNc1ccc(CNCc2ccc(-c3ccc(-c4nc5cc(C(F)(F)F)ccc5[nH]4)cc3)cc2)cc1 | 0.167
53 | CCCn1c(Sc2ccc(C#N)c([N+](=O)[O-])c2)nnc1-c1ccc(N(C)C)cc1 | 0.125
54 | CNC(=O)c1cnc(Nc2ccc(OCC(O)CN(C)C)cc2)nc1Nc1cccc(OC(C)C)c1 (stereo not drawn) | 0.137
55 | COc1ccc(CNCC2CCC(CNCCc3ccccc3)CC2)cc1Cl (stereo not drawn) | 0.789
56 | COc1ccc(C(=O)N2CCN(c3ccc([N+](=O)[O-])c(NC4CC4)c3)CC2)cc1Br | 0.797
57 | COc1ccc2ncc(Cl)c(CCN3CCC(NCc4ccc5c(n4)NC(=O)CS5)CC3)c2c1 | 0.59
58 | CC(C)NCc1ccc(-c2cccc(NC(=O)c3ccc(Cl)cc3)c2)cc1 | 0.289
59 | CC(C)CNCc1cccc(-c2cccc(CN(CCCN3CCN(C)CC3)C(=O)Nc3ccccc3)c2)c1 | 1.15
60 | CC(Oc1cc(-n2cnc3ccc(NC(=O)CCN4CCCCC4)cc32)sc1C(N)=O)c1ccccc1Cl (stereo not drawn) | 0.4
61 | COc1ccc(CCn2c(=N)c(C(=O)NC3CCCC3)cc3c(=O)n4ccccc4nc32)cc1 | 0.678
62 | COc1cc2nc(N3CCC(CNC(=O)c4ccc(OC(F)(F)F)cc4)CC3)nc(N)c2cc1OC | 0.224
63 | COc1ccc(CN2CCCC(Nc3ccc(F)c(F)c3)C2)c(O)c1 (stereo not drawn) | 1.09
64 | COc1ccc(Cl)c(CC2c3cc(O)c(Cl)cc3CCN2C)c1 (stereo not drawn) | 0.695
65 | CCCCCCCN(Cc1ccc(OC(C)(C)C(=O)OCC)cc1)C(=O)Nc1ccccc1OC(F)(F)F | 0.966
66 | CCC1CN2CCc3c([nH]c4ccccc34)C2CC1CC1=NCCc2c1[nH]c1ccc(OC)cc21 (stereo not drawn) | 0.641
67 | C=CCn1cc(C2CCN(CCCCNC(=O)c3sc(-c4ccc(C(F)(F)F)cc4)nc3CO)CC2)c2cc(OC)ccc21 | 1.04
68 | Cc1cccc(C(=O)Nc2ccnc(N(C)CCCN(C)Cc3cccc(O)c3)c2)c1 | 0.967
69 | O=C(c1ccc(-c2ccccn2)s1)N1CCc2cc3nccc(N4CCN5CCC[C@H]5C4)c3cc21 | 0.762
70 | Cc1ccc2ncc(Cl)c(CCN3CCC(NCc4ccc5c(n4)NC(=O)CS5)CC3)c2n1 | 1.1
71 | CN1CCN(c2ccnc3ccc(NC(=O)Nc4ccc(-c5ccccc5)cc4)cc23)CC1 | 0.776
72 | C=C[C@H]1CN(CCCCCCC)CC[C@H]1C[C@@H](Cc1ccnc2ccc(OC)cc12)OC(=O)[C@](OC)(c1ccccc1)C(F)(F)F | 0.876
73 | COc1ccc(-c2nc(NC(=O)COc3ccc(C(C)=O)cc3)sc2C)cc1 | 0.713
74 | CCN(CC)CCCn1c(N)c(-c2nc3ccccc3[nH]2)c2nc(C#N)c(C#N)nc21 | 0.267
75 | Cc1cccc(C(=O)NC(NC(=S)Nc2ccc([N+](=O)[O-])cc2)C(Cl)(Cl)Cl)c1 (stereo not drawn) | 0.744

Row | Compound | XC50 [µM]
76 | Cc1cc(NC2CCN(CC3CCCCC3)CC2)nc(Nc2ccccc2Cl)n1 | 0.642
77 | CN1CC=C(c2csc3ccc(NC(=O)Nc4ccc(-c5ccncc5)c(Cl)c4)cc23)CC1 | 0.681
78 | CC(C)(CNC(=O)[C@@H]1CCCN(CCOc2ccc(F)c(F)c2)C1)c1nc(-c2ccc(Cl)c(O)c2)c(-c2ccncc2)[nH]1 | 0.722
79 | Cc1cccc2nc(-c3cccc(-c4cccc(CNCCCN5CCCC5=O)c4)c3)[nH]c12 | 0.743
80 | Cc1cc(N2CCCN(C)CC2)nc(Nc2ccc(Br)cc2)n1 | 0.723
81 | Cc1cc(N(C)C)nc(Nc2ccc(NS(=O)(=O)c3ccccc3)cc2)n1 | 1.35
82 | CCCC(C)c1cnc2nc(N)nc(N)c2c1C (stereo not drawn) | 0.0284
83 | CCN(CC)CCCC(C)Nc1ccnc2ccc(OC)cc12 (stereo not drawn) | 0.822
84 | CCOC(=O)c1cccc(NC(=O)Nc2cc(C)nc3ccccc23)c1 | 0.286
85 | CN1CCc2ccc(NC(=O)Nc3ccc(Cl)c(Cl)c3)cc2C1 | 0.724
86 | CS(=O)(=O)NCCCNCc1ccc(-c2ccc(-c3nc4cc(C(F)(F)F)ccc4[nH]3)s2)cc1 | 0.515
87 | COc1ccc(-c2nonc2NC(=O)c2cccc(C)c2)cc1OC | 0.806
88 | Oc1cc(Nc2ccnc3cc(-c4cccc(CN5CCCCC5)c4)ccc23)c(F)cc1Cl | 0.102
89 | CCn1c(Sc2ccc(C#N)c([N+](=O)[O-])c2)nnc1-c1cc(OC)cc(OC)c1 | 0.565
90 | Cc1onc(-c2c(F)cccc2Cl)c1C(=O)Nc1ccccc1I | 0.952
91 | CN1CCC(NCc2cccc(-c3ccc(S(=O)(=O)NCc4ccccc4)cc3)c2)CC1 | 0.687
92 | O=C(Nc1cccc(CN2CCN(C(=O)c3cccc(F)c3)CC2)c1)c1cccs1 | 0.372
93 | O=C(Nc1ccc(OC2CCN(Cc3ccc(F)cc3)CC2)c(Cl)c1)c1ccco1 | 0.303
94 | O=C(N[C@@H](Cc1ccccc1)C(=O)NC1CCCCCC1)c1ccc(O)c(-c2cccc(C(F)(F)F)c2)c1 | 0.735
95 | COCCNCc1cccc(-c2ccc3c(Nc4ccc(Oc5cccnc5)cc4)ccnc3c2)c1 | 0.178
96 | CC(CN)OCn1cnc2c(N)ncnc21 (stereo not drawn) | 0.231
97 | N#Cc1ccc(-c2ccc(C(=O)NCCCCN3CC=C(c4ccc5c(c4OCC4CC4)CCCC5)CC3)cc2)cc1 | 0.623
98 | COc1ccc(OCC(O)CN(Cc2ccccc2OC)C(=O)Nc2ccc(Br)cc2)cc1 (stereo not drawn) | 0.748
